Measured values: ChEMBL document CHEMBL1151142, “Triterpenoids and Flavonoids from Hyptis albida” (J Nat Prod, 1990)

System: Artemia
Assay: Toxicity against brine shrimp
Assay type: organism-based
Conditions: in vivo

COc1ccc(-c2oc3cc(O)cc(O)c3c(=O)c2OC)cc1 [ERMANIN]
LC50: > 700 ppm

CC1(C)CC[C@@]23CC[C@]4(C)[C@@](C=C[C@@H]5[C@@]6(C)CC[C@H](O)C(C)(C)[C@@H]6CC[C@]54C)(OC2=O)[C@@H]3C1
LC50: > 700 ppm

COc1ccc(-c2cc(=O)c3c(O)cc(OC)cc3o2)cc1 [APIGENIN DIMETHYLETHER]
LC50: > 700 ppm

COc1ccc(-c2oc3cc(OC)cc(O)c3c(=O)c2OC)cc1
LC50: > 700 ppm

C[C@H]1[C@H](C)CC[C@]2(C(=O)O)CC[C@]3(C)C(=CC[C@@H]4[C@@]5(C)CC[C@H](O)C(C)(C)[C@@H]5CC[C@]43C)[C@H]12 [URSOLIC ACID]
LC50: > 700 ppm

CC1(C)CC[C@@]23CC[C@]4(C)[C@@](CC[C@@H]5[C@@]6(C)CC[C@H](O)C(C)(C)[C@@H]6CC[C@]54C)(OC2=O)[C@@H]3C1
LC50: > 700 ppm

CC(=O)O[C@H]1CC[C@]2(C)[C@H]3CC=C4[C@@H]5CC(C)(C)CC[C@]5(C(=O)O)CC[C@@]4(C)[C@]3(C)CC[C@H]2C1(C)C [ACETYL OLEANOLIC ACID]
LC50: > 700 ppm

COc1ccc(-c2cc(=O)c3c(O)c(OC)c(OC)c(OC)c3o2)cc1 [GARDENIN B]
LC50: > 700 ppm

COc1ccc(-c2cc(=O)c3c(O)c(OC)c(O)c(OC)c3o2)cc1 [NEVADENSIN]
LC50: > 700 ppm

CC1(C)CC[C@]2(C(=O)O)CC[C@]3(C)C(=CC[C@@H]4[C@@]5(C)CC[C@H](O)C(C)(C)[C@@H]5CC[C@]43C)[C@@H]2C1 [OLEANOLIC_ACID]
LC50: > 700 ppm

CC1(C)CC[C@@]23CC[C@]4(C)[C@@](OC2=O)([C@@H]3C1)[C@H]1O[C@H]1[C@@H]1[C@@]2(C)CC[C@H](O)C(C)(C)[C@@H]2CC[C@]14C
LC50: > 700 ppm

C=C(C)[C@@H]1CC[C@]2(C(=O)O)CC[C@]3(C)[C@H](CC[C@@H]4[C@@]5(C)CC[C@H](O)C(C)(C)[C@@H]5CC[C@]43C)[C@@H]12 [BETULINIC ACID]
LC50: > 700 ppm
